The experiment deals with T1, Dopamine beta hydroxylase (Homo sapiens, UniProt P09172).
T1 construct: 125 μl of plasma; tissue Instituto Português do Sangue Transplantação; host or cells: human plasma from healthy donors
T1 sequence (P09172 40-617 limits assumed): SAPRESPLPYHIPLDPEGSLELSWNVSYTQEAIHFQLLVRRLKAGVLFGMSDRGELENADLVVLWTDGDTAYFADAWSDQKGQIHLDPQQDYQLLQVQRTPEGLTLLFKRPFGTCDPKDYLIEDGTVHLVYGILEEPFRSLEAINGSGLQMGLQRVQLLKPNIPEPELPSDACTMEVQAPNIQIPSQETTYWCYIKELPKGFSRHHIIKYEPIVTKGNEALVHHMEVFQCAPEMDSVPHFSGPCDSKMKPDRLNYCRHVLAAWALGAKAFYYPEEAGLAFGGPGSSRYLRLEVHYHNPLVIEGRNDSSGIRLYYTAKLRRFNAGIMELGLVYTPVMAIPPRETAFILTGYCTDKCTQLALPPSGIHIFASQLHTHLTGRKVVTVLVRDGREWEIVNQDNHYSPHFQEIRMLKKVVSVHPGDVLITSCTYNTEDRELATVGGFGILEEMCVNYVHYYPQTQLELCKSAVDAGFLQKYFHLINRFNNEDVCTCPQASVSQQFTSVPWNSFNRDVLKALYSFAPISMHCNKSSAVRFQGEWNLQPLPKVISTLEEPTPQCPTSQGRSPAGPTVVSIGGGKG
Description: Dopamine beta hydroxylase activity in human plasma. In kind it is biochemical. To be noted: for Plasma (0.01 μM), activity in % of control: inhibitor 0.01 μM; for Plasma (0.1 μM), activity in % of control: inhibitor 0.1 μM; for Plasma (1 μM), activity in % of control: inhibitor 1 μM. In outline: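 Octopamine production from tyramine over 45 min at 37° C, measured photometrically at 330 nm after SCX extraction and periodate oxidation against an octopamine standard curve, indicates plasma DβH activity. Compounds tested at final 10, 100 and 1000 nM in human plasma, pH 5.0 cofactor buffer, 10 min preincubation; results as % of control.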

The results in this text go back to patent publication US11434242B2, “Dopamine-b-hydroxylase inhibitors” (BIAL-PORTELA & Cª, S.A., priority 2017, dated 2022).

Molecules are shown by their SMILES.

For the molecule `C[C@@H](NC(=O)Cc1[nH]c(=S)n2c1C[C@H](c1c(F)ccc(Br)c1F)C2)C1CCCCC1` [Example 127, 2-((R)-6-(3-bromo-2,6-difluorophenyl)-3-thioxo-2,5,6,7-tetrahydro-3H-pyrrolo[1,2-c]imidazol-1-yl)-N—((R)-1-cyclohexylethyl)acetamide], the “Plasma (0.01 μM), activity in % of control” value was 81.3 % of control and the “Plasma (0.1 μM), activity in % of control” value is recorded as 83.8 % of control.
For `CN(C(=O)Cc1[nH]c(=S)n2c1[C@@H]1C[C@]1(c1c(F)ccc(Cl)c1F)C2)C1CCOCC1` [Example 381, 2-((5aS,6aR)-5a-(3-chloro-2,6-difluorophenyl)-3-thioxo-2,3,5,5a,6,6a-hexahydrocyclopropa[3,4]pyrrolo[1,2-c]imidazol-1-yl)-N-methyl-N-(tetrahydro-2H-pyran-4-yl)acetamide] the same measures were 30.0 % of control and 3.2 % of control.
The matching figures for `Cl.Cn1c(CC(=O)Nc2ccncc2)c2n(c1=S)C[C@H](c1c(F)ccc(Cl)c1F)C2` [Example 287, (S)-2-(6-(3-chloro-2,6-difluorophenyl)-2-methyl-3-thioxo-2,5,6,7-tetrahydro-3H-pyrrolo[1,2-c]imidazol-1-yl)-N-(pyridin-4-yl)acetamide Hydrochloride]: 66.8 % of control and 15.5 % of control.
On to `Cn1c(CC(=O)N[C@@H]2CCOC2)c2n(c1=S)C[C@@]1(c3cc(Br)ccc3F)C[C@@H]21` [Example 279, 2-((5aS,6aR)-5a-(5-bromo-2-fluorophenyl)-2-methyl-3-thioxo-2,3,5,5a,6,6a-hexahydrocyclopropa[3,4]pyrrolo[1,2-c]imidazol-1-yl)-N—((R)-tetrahydrofuran-3-yl)acetamide], for which the “Plasma (0.01 μM), activity in % of control” value was 61.7 % of control and the “Plasma (0.1 μM), activity in % of control” value was 15.7 % of control.
In the case of `O=C(Cc1[nH]c(=S)n2c1C[C@H](c1c(F)c(F)cc(F)c1F)C2)N1CCC[C@H]1CO` [Example 98, 1-((S)-2-(hydroxymethyl)pyrrolidin-1-yl)-2-((R)-6-(2,3,5,6-tetrafluorophenyl)-3-thioxo-2,5,6,7-tetrahydro-3H-pyrrolo[1,2-c]imidazol-1-yl)ethan-1-one], the “Plasma (0.1 μM), activity in % of control” value is 53.1 % of control and the “Plasma (1 μM), activity in % of control” value is 11.7 % of control.
`CN(C(=O)Cc1c2n(c(=S)n1C)C[C@@]1(c3cc(Br)ccc3F)C[C@@H]21)[C@@H]1CCOC1` [Example 466, 2-((5aS,6aR)-5a-(5-bromo-2-fluorophenyl)-2-methyl-3-thioxo-2,3,5,5a,6,6a-hexahydrocyclopropa[3,4]pyrrolo[1,2-c]imidazol-1-yl)-N-methyl-N—((R)-tetrahydrofuran-3-yl)acetamide]: the “Plasma (0.01 μM), activity in % of control” value is 49.6 % of control and the “Plasma (0.1 μM), activity in % of control” value is on record as 6.5 % of control.
Take `Cn1c(CC(=O)O)c2n(c1=S)C[C@H](c1c(F)ccc(F)c1F)C2` [Example 409, (S)-2-(2-methyl-3-thioxo-6-(2,3,6-trifluorophenyl)-2,5,6,7-tetrahydro-3H-pyrrolo[1,2-c]imidazol-1-yl)acetic Acid]: the “Plasma (0.01 μM), activity in % of control” value was 112.6 % of control and the “Plasma (0.1 μM), activity in % of control” value was 64.4 % of control.
For the molecule `Fc1ccc(Br)c(F)c1[C@H]1Cc2c(CCN[C@@H]3CCOC3)[nH]c(=S)n2C1` [Example 176, (R)-6-(3-bromo-2,6-difluorophenyl)-1-(2-(((R)-tetrahydrofuran-3-yl)amino)ethyl)-2,5,6,7-tetrahydro-3H-pyrrolo[1,2-c]imidazole-3-thione], the “Plasma (0.01 μM), activity in % of control” value is 95.3 % of control and the “Plasma (0.1 μM), activity in % of control” value was 74.9 % of control.
With `Cn1c(CC(=O)Nc2ncco2)c2n(c1=S)C[C@H](c1c(F)ccc(Cl)c1F)C2` [Example 317, (S)-2-(6-(3-chloro-2,6-difluorophenyl)-2-methyl-3-thioxo-2,5,6,7-tetrahydro-3H-pyrrolo[1,2-c]imidazol-1-yl)-N-(oxazol-2-yl)acetamide], the “Plasma (0.01 μM), activity in % of control” value is recorded as 45.6 % of control and the “Plasma (0.1 μM), activity in % of control” value is 5.3 % of control.
Regarding `CCOC(=O)Cc1[nH]c(=S)n2c1C[C@H](c1c(F)cccc1F)C2` [Example 65, Ethyl (R)-2-(6-(2,6-difluorophenyl)-3-thioxo-2,5,6,7-tetrahydro-3H-pyrrolo[1,2-c]imidazol-1-yl)acetate], the “Plasma (0.1 μM), activity in % of control” value is 64.5 % of control and the “Plasma (1 μM), activity in % of control” value is reported as 12.6 % of control.
With `F.Fc1ccc(Br)cc1[C@]12C[C@H]1c1c(CCNC3CCC3)[nH]c(=S)n1C2` [Example 188, (5aS,6aR)-5a-(5-bromo-2-fluorophenyl)-1-(2-(cyclobutylamino)ethyl)-5,5a,6,6a-tetrahydrocyclopropa[3,4]pyrrolo[1,2-c]imidazole-3(2H)-thione hydrofluoride], the “Plasma (0.01 μM), activity in % of control” value is given as 60.9 % of control and the “Plasma (0.1 μM), activity in % of control” value is listed as 15.4 % of control.
In the case of `Cl.Cn1c(CCN[C@@H]2CCCOC2)c2n(c1=S)C[C@@]1(c3cc(Br)ccc3F)C[C@@H]21` [Example 331, (5aS,6aR)-5a-(5-bromo-2-fluorophenyl)-2-methyl-1-(2-(((R)-tetrahydro-2H-pyran-3-yl)amino)ethyl)-5,5a,6,6a-tetrahydrocyclopropa[3,4]pyrrolo[1,2-c]imidazole-3(2H)-thione Hydrochloride], the “Plasma (0.01 μM), activity in % of control” value was 77.4 % of control and the “Plasma (0.1 μM), activity in % of control” value is 50.2 % of control.
The matching figures for `N#CN/C(N)=N/Cc1[nH]c(=S)n2c1C[C@@H](c1c(F)ccc(Br)c1F)C2` [Example 224, 2-{[(6S)-6-(3-bromo-2,6-difluorophenyl)-3-thioxo-2,5,6,7-tetrahydro-3H-pyrrolo[1,2-c]imidazol-1-yl]methyl}-1-cyanoguanidine]: 22.6 % of control and 0.6 % of control.
With `CN(Cc1cccnc1)C(=O)Cc1[nH]c(=S)n2c1C[C@@H](c1c(F)ccc(Cl)c1F)C2` [Example 134, (S)-2-(6-(3-chloro-2,6-difluorophenyl)-3-thioxo-2,5,6,7-tetrahydro-3H-pyrrolo[1,2-c]imidazol-1-yl)-N-methyl-N-(pyridin-3-ylmethyl)acetamide], the “Plasma (0.01 μM), activity in % of control” value is 24.9 % of control and the “Plasma (0.1 μM), activity in % of control” value is on record as 3.2 % of control.
In the case of `O=C(O)Cc1[nH]c(=S)n2c1C[C@H](c1c(F)c(F)cc(F)c1F)C2` [Example 15, (R)-2-(6-(2,3,5,6-tetrafluorophenyl)-3-thioxo-2,5,6,7-tetrahydro-3H-pyrrolo[1,2-c]imidazol-1-yl)acetic Acid], the “Plasma (0.1 μM), activity in % of control” value was 66.0 % of control and the “Plasma (1 μM), activity in % of control” value was 11.4 % of control.
On to `Cn1c(CC(=O)NC2CCOCC2)c2n(c1=S)C[C@H](c1c(F)ccc(Br)c1F)C2` [Example 406, (S)-2-(6-(3-bromo-2,6-difluorophenyl)-2-methyl-3-thioxo-2,5,6,7-tetrahydro-3H-pyrrolo[1,2-c]imidazol-1-yl)-N-(tetrahydro-2H-pyran-4-yl)acetamide], for which the “Plasma (0.01 μM), activity in % of control” value is on record as 28.9 % of control and the “Plasma (0.1 μM), activity in % of control” value was 2.8 % of control.
In the case of `CCCNC(=O)Cc1[nH]c(=S)n2c1C[C@@H](c1c(F)ccc(Br)c1F)C2` [Example 97, (S)-2-(6-(3-bromo-2,6-difluorophenyl)-3-thioxo-2,5,6,7-tetrahydro-3H-pyrrolo[1,2-c]imidazol-1-yl)-N-propylacetamide], the “Plasma (0.1 μM), activity in % of control” value was 22.7 % of control and the “Plasma (1 μM), activity in % of control” value is 0.5 % of control.
`Cn1cc(NC(=O)Cc2c3n(c(=S)n2C)C[C@H](c2c(F)ccc(Cl)c2F)C3)cn1` [Example 350, (S)-2-(6-(3-chloro-2,6-difluorophenyl)-2-methyl-3-thioxo-2,5,6,7-tetrahydro-3H-pyrrolo[1,2-c]imidazol-1-yl)-N-(1-methyl-1H-pyrazol-4-yl)acetamide]: the “Plasma (0.01 μM), activity in % of control” value is reported as 85.7 % of control and the “Plasma (0.1 μM), activity in % of control” value is listed as 28.2 % of control.
For the molecule `CN(C(=O)Cc1c2n(c(=S)n1C)C[C@H](c1c(F)ccc(Cl)c1F)C2)C1COC1` [Example 429, (S)-2-(6-(3-chloro-2,6-difluorophenyl)-2-methyl-3-thioxo-2,5,6,7-tetrahydro-3H-pyrrolo[1,2-c]imidazol-1-yl)-N-methyl-N-(oxetan-3-yl)acetamide], the “Plasma (0.01 μM), activity in % of control” value was 37.8 % of control and the “Plasma (0.1 μM), activity in % of control” value is given as 5.8 % of control.
